The structures appear in SMILES notation. ≈ marks a conversion by molar mass, not a printed value.

The record followed here is ChEMBL document CHEMBL3817789 (2016).

Format in all cases: functional
For experiment [1], the system named is Staphylococcus aureus. The experiment can be described thus: Antibacterial activity against methicillin-sensitive Staphylococcus aureus isolate SDS15016 after 24 hrs by broth microdilution method. The note with it: isolate SDS15016, 24 h. (Broth dilution looks for growth in wells or tubes with falling amounts of substance.)
Experiment [2] deals with Staphylococcus aureus. The experiment can be described thus: Antibacterial activity against methicillin-resistant Staphylococcus aureus isolate SDSM1503 after 24 hrs by broth microdilution method. To be noted: isolate SDSM1503, 24 h.
Experiment [3] relates to Candida albicans. The experiment can be described thus: Antifungal activity against clinical isolates of Candida albicans SC5314 after 48 hrs by broth microdilution method. To be noted: SC5314, 48 h.

The term MIC denotes the lowest concentration found to suppress growth. For orientation: MIC80 means the lowest concentration that inhibits either 80% of growth or 80% of the strains tested, depending on the study. Read a high MIC80 as weaker potency. On to `Oc1cc2ccc1Oc1cc(ccc1O)CCc1ccc(c(O)c1)-c1c(O)cccc1CC2`, for which the MIC stood at 2 µg/mL (≈ 4.54 µM) in experiment [1] and 4 µg/mL (≈ 9.08 µM) in experiment [2]. This molecule displayed an MIC80 in experiment [3] of over 64 µg/mL.

For the molecule `Oc1cc2ccc1-c1c(ccc(Br)c1O)CCc1ccc(cc1)Oc1cc(cc(Br)c1O)CC2`, the results for the MIC in experiment [1] and in experiment [2] were 8 µg/mL (≈ 13.7 µM) and 16 µg/mL (≈ 27.5 µM), respectively. In addition, the MIC80 in experiment [3] is over 64 µg/mL.

As to `Oc1ccc2cc1Oc1ccc(cc1)CCc1cccc(O)c1-c1ccc(c(Br)c1O)CC2`, the figures for the minimum inhibitory concentration (MIC) in experiment [1] and in experiment [2] were 2 µg/mL (≈ 3.97 µM) and 8 µg/mL (≈ 15.9 µM), respectively. The same molecule showed an MIC80 in experiment [3] of over 64 µg/mL.

Take `COc1cccc2c1-c1ccc(cc1O)CCc1ccc(O)c(c1)Oc1ccc(cc1)CC2`: the MIC in experiment [1] was 2 µg/mL (≈ 4.56 µM); in experiment [2], 4 µg/mL (≈ 9.12 µM). Further, the MIC80 in experiment [3] is over 64 µg/mL.

In the case of `Oc1ccc2cc1Oc1ccc(cc1)CCc1c(Br)ccc(O)c1-c1ccc(c(Br)c1O)CC2`, the results for the minimal inhibitory concentration (MIC) in experiment [1] and in experiment [2] were 2 µg/mL (≈ 3.43 µM) and 4 µg/mL (≈ 6.87 µM), respectively. The same molecule returned an MIC80 in experiment [3] of 8 µg/mL (≈ 13.7 µM).

In the case of `Oc1ccc2cc1Oc1ccc(cc1)CCc1cccc(O)c1-c1cc(Br)c(cc1O)CC2`, the MIC in experiment [1] is 2 µg/mL (≈ 3.97 µM); in experiment [2], 4 µg/mL (≈ 7.95 µM). The MIC80 in experiment [3] was over 64 µg/mL.

For the molecule `Oc1cc2ccc1-c1c(O)cccc1CCc1ccc(cc1)Oc1cc(cc(O)c1O)CC2`, the MIC in experiment [1] came to 2 µg/mL (≈ 4.54 µM); in experiment [2], 8 µg/mL (≈ 18.2 µM). Further, the MIC80 in experiment [3] was over 64 µg/mL.

For the molecule `Oc1ccc2cc1Oc1ccc(cc1)CCc1ccc(Br)c(O)c1-c1ccc(c(Br)c1O)CC2`, the MIC was 4 µg/mL (≈ 6.87 µM) in experiment [1] and 16 µg/mL (≈ 27.5 µM) in experiment [2]. The molecule further displayed an MIC80 in experiment [3] of over 64 µg/mL.

`Oc1ccc2cc1Oc1ccc(cc1)CCc1ccc(Br)c(O)c1-c1cc(Br)c(cc1O)CC2`: the minimal inhibitory concentration (MIC) in experiment [1] stood at 2 µg/mL (≈ 3.43 µM); in experiment [2], 4 µg/mL (≈ 6.87 µM). Also, the MIC80 in experiment [3] was over 64 µg/mL.

Consider `COc1cc2ccc1-c1c(O)cccc1CCc1ccc(cc1)Oc1cc(ccc1O)CC2`, for which the MIC was 2 µg/mL (≈ 4.56 µM) in experiment [1] and 8 µg/mL (≈ 18.2 µM) in experiment [2]. The molecule further showed an MIC80 in experiment [3] of over 64 µg/mL.

Take `Oc1cc2ccc1Oc1cc(cc(O)c1O)CCc1ccc(c(O)c1)-c1c(O)cccc1CC2`: the results for the MIC in experiment [1] and in experiment [2] were 8 µg/mL (≈ 17.5 µM) and 16 µg/mL (≈ 35 µM), respectively. For the same molecule, in experiment [3], the MIC80 is over 64 µg/mL.

Take `Oc1ccc2cc1Oc1ccc(cc1)CCc1c(Br)ccc(O)c1-c1cc(Br)c(cc1O)CC2`: the figures for the minimum inhibitory concentration (MIC) in experiment [1] and in experiment [2] were 2 µg/mL (≈ 3.43 µM) and 4 µg/mL (≈ 6.87 µM), respectively. Moreover, the MIC80 in experiment [3] is 8 µg/mL (≈ 13.7 µM).

`Cc1onc(-c2ccccc2)c1C(=O)N[C@@H]1C(=O)N2[C@@H]1SC(C)(C)[C@@H]2C(=O)[O-].[Na+]`: the minimum inhibitory concentration (MIC) is 8 µg/mL in experiment [1] and over 128 µg/mL in experiment [2].

Take `CO/N=C(\C(=O)N[C@@H]1C(=O)N2C(C(=O)O)=C(COC(C)=O)CS[C@H]12)c1csc(N)n1` [CEFOTAXIME]: the MIC is 4 µg/mL (≈ 8.78 µM) in experiment [1] and over 128 µg/mL in experiment [2].

With `CC(C)(O/N=C(\C(=O)N[C@@H]1C(=O)N2C(C(=O)[O-])=C(C[n+]3ccccc3)CS[C@H]12)c1csc(N)n1)C(=O)O` [CEFTAZIDIME], the MIC in experiment [1] was 4 µg/mL (≈ 7.32 µM); in experiment [2], over 128 µg/mL.

As to `Cc1onc(-c2ccccc2Cl)c1C(=O)N[C@@H]1C(=O)N2[C@@H]1SC(C)(C)[C@@H]2C(=O)O` [CLOXACILLIN], the MIC in experiment [1] was 0.5 µg/mL (≈ 1.15 µM); in experiment [2], over 128 µg/mL.

For `OC(Cn1cncn1)(Cn1cncn1)c1ccc(F)cc1F` [FLUCONAZOLE], the MIC80 in experiment [3] worked out at 2 µg/mL (≈ 6.53 µM).
